Several values for one entry are separate records, joined by “and”; a condition that tells them apart may be missing. Equal values may be shown once.

The target of experiment [1] is RNase H activity of HIV reverse transcriptase (Human immunodeficiency virus type 1 group M subtype B, UniProt P04585). As to the kind of experiment: Fluorescence (FRET)-based RNase H activity assay of HIV reverse transcriptase. In kind it is biochemical, HIV-1. More on the design: final concentration of 2.5 nM of the p51/p66 RT heterodimer in the assay; made in house. Particulars: 10 μM inhibitor concentration, activity with analog / without analog x 100. On the procedure: Recently, a fluorescence-based assay to perform preliminary screens in search of HIV RNase H inhibitors has been developed. The assay, which is carried out in 96-well microplates and is adaptable to robotics, is the first high-throughput screen for RNase H and is described in further detail in the Experimental section. HIV-1 RT and human RNase H were cloned, and thus comparative analysis of inhibitor action could be conducted simultaneously.
The assay for RNase H activity of HIV reverse transcriptase was the fluorescence-based assay described in detail in the Experimental section and discussed in U.S. Provisional Patent Application Serial No. 60/318,359. Assays were carried out in the absence and in the presence of mappicine analogs (10 μM final concentration). The results are reported as % residual activity, which is the RNase H activity of the enzyme in the presence of the mappicine analog divided by the RNase H activity of the enzyme in the absence of the mappicine analog, multiplied by 100. Alternatively, the results are reported as % inhibition, which is calculated as the ratio of the RNase H activity of the enzyme in the presence of the mappicine analog to the enzyme activity in the absence of the mappicine analog, multiplied by 100, and then subtracting this number from 100.
Assay for Ribonuclease H Activity Based on Fluorescence Resonance Energy Transfer (FRET)
Preparation of the Fluorophore-RNA/Quencher-DNA Hybrid Duplex Substrate.
The RNA/DNA hybrid duplex substrate for use in the assay comprises an RNA oligonucleotide of sequence 5′-GAU CUG AGC CUG GGA GCU-3′, modified at the 3′-end with Aminolink-2 and derivatized with fluorescein isothiocyanate, to provide a modified RNA oligonucleotide of the sequence 5′-GAU CUG AGC CUG GGA GCU-fluorescein-3′, annealed to a complementary DNA oligonucleotide of the sequence 5′-AGC TCC CAG GCT CAG ATC-3′ modified at the 5′-end with Aminolink-2 and derivatized with the FRET acceptor DABCYL succinimidyl ester, to provide a modified DNA oligonucleotide of the sequence 5′-DABCYL-AGC TCC CAG GCT CAG ATC-3′.
To prepare the 3′-fluorescein-RNA/5′-DABCYL-DNA hybrid duplex substrate, a known amount of 3′-fluorescein-RNA was dissolved in 20 mM Tris buffer (pH 8.0, 37° C.) to provide a final concentration of 5 μM. Two equivalents of the 5′-DABCYL-DNA oligonucleotide were added, and the mixture was heated to 90° C. for 5 min and cooled slowly to room temperature to allow duplex formation. The positioning of the fluorescein donor at the 3′-end of the RNA oligonucleotide and the DABCYL acceptor at the 5′-end of the DNA oligonucleotide provides a very close proximity of the donor and acceptor that results in a very intense quenching of the fluorescein emission in the intact RNA/DNA hybrid duplex substrate due to the spectral overlap of the fluorescence emission of fluorescein with the absorption spectrum of DABCYL. In addition, DABCYL is non-fluorescent, and thus cannot contribute any light emission. Both of these factors result in a very low background and provide a high signal-to-noise in the assay measurements. The ratio of the donor fluorescence in the absence and in the presence of its quencher is approximately fifteen-fold.
Microplate Assay Protocol for the Measurement of RNase H Activity Using the RNA/DNA Hybrid Duplex Substrate.
Reaction assay mixtures contained 5 μl of a stock solution of 2.5 μM RNA/DNA hybrid duplex substrate added to 85 μl of assay buffer (50 mM Tris, pH 8.0, 37° C., containing 60 mM KCl and 2.5 mM MgCl2), prepared in the wells of a 96-well fluorescence microtiter plate, and warmed to 37° C. using the temperature control of the SpectraMax Gemini XS microplate spectrofluorometer (Molecular Devices). Reactions were started by the addition of 5 μl of a solution of recombinant HIV-1 reverse transcriptase (usually providing a final concentration of 2.5 nM of the p51/p66 RT heterodimer in the assay), and mixing using the automatic mixing function of the microplate spectrofluorometer. […]

The target in experiment [2] is T1, RNA-dependent DNA polymerase activity of HIV reverse transcriptase (Human immunodeficiency virus type 1 group M subtype B, UniProt P04585).
T1 construct: made in house
As to the kind of experiment: RNA-dependent DNA polymerase activity assay of HIV reverse transcriptase. In kind it is biochemical, HIV-1. The settings on record: 10 μM inhibitor concentration, activity with analog / without analog x 100. The method, then: In separate, representative assays, mappicine analogs were tested for their ability to inhibit the RNA-dependent DNA polymerase activity of HIV reverse transcriptase and for their ability to inhibit the RNase H activity of HIV reverse transcriptase. The assay for RNA-dependent DNA polymerase activity is discussed in Borkow, G. et al., “Inhibition of the Ribonuclease H and DNA Polymerase Activities of HIV-1 Reverse Transcriptase by N-(4-tert-Butylbenzoyl)-2-hydroxy-1-naphthaldehyde Hydrazone,” Biochemistry 1997, 36, 3179-3185, a copy of which is attached hereto, and the disclosure of which is incorporated herein by reference. Assays were carried out in the absence and in the presence of mappicine analogs (10 μM final concentration). The results are reported as % residual activity, which is the RNA-dependent DNA polymerase activity of the enzyme in the presence of the mappicine analog divided by the RNA-dependent activity of the enzyme in the absence of the mappicine analog, multiplied by 100.

`COc1ccc2nc3c(c([Si](C)(C)C)c2c1)Cn1c-3cc(C(O)C(C)(C)C)c(C)c1=O` (stereo not shown) [5Dβ]: the “Residual activity (%) RNase H” value in experiment [1] was determined as 102%. Besides, the “Residual activity (%) Polymerase” value in experiment [2] stood at 76%.
Taken in the same sequence, the figures for `CCCCCCc1c2c(nc3ccccc13)-c1cc(C(O)Cc3ccccc3)c(C)c(=O)n1C2` (racemic) [8Aε] were 71% and 58%.
In the case of `CCC(O)c1cc2n(c(=O)c1C)Cc1c-2nc2ccccc2c1[Si](C)(C)C(C)(C)C` (racemic) [4Aα], the “Residual activity (%) RNase H” value in experiment [1] turned out to be 104%. Moreover, the “Residual activity (%) Polymerase” value in experiment [2] came to 67%.
Turning to `COc1ccc2nc3c(c([Si](C)(C)C(C)(C)C)c2c1)Cn1c-3cc(C(=O)CCC2CCCCC2)c(C)c1=O` [4Dδκ], in experiment [1] (10 µM), the “Residual activity (%) RNase H” value is 83% and 97%. Further, in experiment [2] (10 µM), the “Residual activity (%) Polymerase” value is 50% and 64%.
Take `Cc1ccc2nc3c(c([Si](C)(C)C(C)(C)C)c2c1)Cn1c-3cc(C(=O)C(C)(C)C)c(C)c1=O` [4Cβκ]: in experiment [1], the “Residual activity (%) RNase H” value amounted to 65%. For the same compound, the “Residual activity (%) Polymerase” value in experiment [2] came to 67%.
For `Cc1ccc2nc3c(c([Si](C)(C)C)c2c1)Cn1c-3cc(C(O)CCC2CCCCC2)c(C)c1=O` (racemic) [5Cδ] the same measures were 103% and 41%.
For `COc1ccc2nc3c(c(-c4ccccc4)c2c1)Cn1c-3cc(C(=O)Cc2ccccc2)c(C)c1=O` [3Dεκ], the “Residual activity (%) RNase H” value in experiment [1] was found to be 88%. Besides, the “Residual activity (%) Polymerase” value in experiment [2] came out at 73%.
Take `CCC(=O)c1cc2n(c(=O)c1C)Cc1c-2nc2ccc(OC)cc2c1[Si](C)(C)C(C)(C)C` [4Dακ]: the “Residual activity (%) RNase H” value in experiment [1] came to 77%. Moreover, the “Residual activity (%) Polymerase” value in experiment [2] is on record as 80%.
For `Cc1c(C(O)C(C)(C)C)cc2n(c1=O)Cc1c-2nc2ccccc2c1[Si](C)(C)C` (racemic) [5Aβ] the same measures were 77% and 103%.
Taken in the same sequence, the figures for `Cc1c(C(O)CCC2CCCCC2)cc2n(c1=O)Cc1c-2nc2ccc(F)cc2c1[Si](C)(C)C(C)(C)C` (stereo not shown) [4Bδ] were 90% and 44%.
Regarding `Cc1c(C(O)Cc2ccccc2)cc2n(c1=O)Cc1c-2nc2ccccc2c1[Si](C)(C)C(C)(C)C` (racemic) [4Aε], the “Residual activity (%) RNase H” value in experiment [1] stood at 93%. Also, the “Residual activity (%) Polymerase” value in experiment [2] is given as 83%.
For `Cc1c(C(O)CCC2CCCCC2)cc2n(c1=O)Cc1c-2nc2ccc(F)cc2c1-c1ccccc1` (racemic) [3Bδ] the same measures were 99% and 81%.
For `Cc1c(C(O)Cc2ccccc2)cc2n(c1=O)Cc1c-2nc2ccc(F)cc2c1-c1ccccc1` (racemic) [3Bε] the same measures were 91% and 28%.
`CCc1c2c(nc3ccc(NC(=O)OC(C)(C)C)cc13)-c1cc(C(O)CC)c(C)c(=O)n1C2` (stereo not shown) [AG 5M, 2-tert-Butyloxycarbonylamino-12-ethyl-7-(1-hydroxypropyl)-8-methyl-11H-indolizino[1,2-b]quinolin-9-one]: the remaining activity at 10 µM was 68% in experiment [1] (read-out: Residual activity (%) RNase H) and 87% in experiment [2] (read-out: Residual activity (%) Polymerase).
Take `CCCCCCc1c2c(nc3ccc(F)cc13)-c1cc(C(O)Cc3ccccc3)c(C)c(=O)n1C2` (racemic) [8Bε]: the “Residual activity (%) RNase H” value in experiment [1] is recorded as 84%. The “Residual activity (%) Polymerase” value in experiment [2] worked out at 92%.
For `Cc1c(C(=O)CCC2CCCCC2)cc2n(c1=O)Cc1c-2nc2ccc(F)cc2c1[Si](C)(C)C(C)(C)C` [4Bδκ] the same measures were 96% and 56%.
With `CCCCCCc1c2c(nc3ccc(OC)cc13)-c1cc(C(O)CC)c(C)c(=O)n1C2` (racemic) [8Dα], the “Residual activity (%) RNase H” value in experiment [1] is reported as 66%. Further, the “Residual activity (%) Polymerase” value in experiment [2] is 85%.
Taken in the same sequence, the figures for `Cc1ccc2nc3c(c([Si](C)(C)C(C)(C)C)c2c1)Cn1c-3cc(C(O)CCC2CCCCC2)c(C)c1=O` (racemic) [4Cδ] were 109% and 61%.
Consider `CCCCCCc1c2c(nc3ccccc13)-c1cc(C(=O)Cc3ccccc3)c(C)c(=O)n1C2` [8Aεκ], for which, in experiment [1], the “Residual activity (%) RNase H” value is on record as 92%. Also, in experiment [2], the “Residual activity (%) Polymerase” value is recorded as 59%.
Taken in the same sequence, the figures for `CCC(=O)c1cc2n(c(=O)c1C)Cc1c-2nc2ccc(F)cc2c1-c1ccccc1` [3Bακ] were 94% and 100%.
For `Cc1ccc2nc3c(c([Si](C)(C)C)c2c1)Cn1c-3cc(C(=O)CCC2CCCCC2)c(C)c1=O` [5Cδκ] the same measures were 99% and 59%.
For `Cc1c(C(=O)CCC2CCCCC2)cc2n(c1=O)Cc1c-2nc2ccccc2c1-c1ccccc1` [3Aδκ] the same measures were 73% and 66%.
On to `Cc1c(C(=O)C(C)(C)C)cc2n(c1=O)Cc1c-2nc2ccc(F)cc2c1[Si](C)(C)C` [5Bβκ], for which, in experiment [1], the “Residual activity (%) RNase H” value turned out to be 100%. Also, the “Residual activity (%) Polymerase” value in experiment [2] amounted to 63%.
For `CCCCCCc1c2c(nc3ccccc13)-c1cc(C(=O)CC)c(C)c(=O)n1C2` [8Aακ] the same measures were 77% and 53%.
For the compound `Cc1c(C(O)CCC2CCCCC2)cc2n(c1=O)Cc1c-2nc2ccc(F)cc2c1[Si](C)(C)C` (racemic) [5Bδ], the “Residual activity (%) RNase H” value in experiment [1] was 103%. Besides, the “Residual activity (%) Polymerase” value in experiment [2] was found to be 78%.
In the case of `CCC(O)c1cc2n(c(=O)c1C)Cc1c-2nc2ccc(C)cc2c1-c1ccccc1` (racemic) [3Cα], the “Residual activity (%) RNase H” value in experiment [1] turned out to be 96%. The “Residual activity (%) Polymerase” value in experiment [2] is given as 64%.
`Cc1c(C(O)C(C)(C)C)cc2n(c1=O)Cc1c-2nc2ccc(F)cc2c1[Si](C)(C)C(C)(C)C` (racemic) [4Bβ]: in experiment [1], the “Residual activity (%) RNase H” value was found to be 113%. The “Residual activity (%) Polymerase” value in experiment [2] is listed as 49%.
Taken in the same sequence, the figures for `Cc1c(C(=O)C(C)(C)C)cc2n(c1=O)Cc1c-2nc2ccc(F)cc2c1[Si](C)(C)C(C)(C)C` [4Bβκ] were 79% and 82%.
Take `Cc1c(C(O)Cc2ccccc2)cc2n(c1=O)Cc1c-2nc2ccccc2c1-c1ccccc1` (stereo not shown) [3Aε]: the “Residual activity (%) RNase H” value in experiment [1] was 99%. In addition, the “Residual activity (%) Polymerase” value in experiment [2] was found to be 34%.

Source of the values: patent US20040058948A1, “Mappicine analogs, methods of inhibiting retroviral reverse transcriptase and methods of treating retroviruses” (priority 2002, published 2004).
